# Calls of active or inactive are those of the source. The rule behind the calls is not given here.
# Tests used:
# [1] = test system: MDA-MB-231; assay: Cytostatic activity against human MDA-MB-231 cells at IC50 concentration; type: functional, cell-based
# [2] = target: T1, M-phase inducer phosphatase 1 (Homo sapiens) (UniProt P30304); assay: Inhibition of human recombinant full length GST-tagged CDC25A transfected in Escherichia coli BL21-DE3 using 3-O-methylfluorescein phosphate as substrate at 10 uM incubated for 20 mins followed by substrate addition measured every 10 mins for 2 hrs by fluorimetric assay in presence of 0.025% triton X 100
# T1 sequence (whole entry): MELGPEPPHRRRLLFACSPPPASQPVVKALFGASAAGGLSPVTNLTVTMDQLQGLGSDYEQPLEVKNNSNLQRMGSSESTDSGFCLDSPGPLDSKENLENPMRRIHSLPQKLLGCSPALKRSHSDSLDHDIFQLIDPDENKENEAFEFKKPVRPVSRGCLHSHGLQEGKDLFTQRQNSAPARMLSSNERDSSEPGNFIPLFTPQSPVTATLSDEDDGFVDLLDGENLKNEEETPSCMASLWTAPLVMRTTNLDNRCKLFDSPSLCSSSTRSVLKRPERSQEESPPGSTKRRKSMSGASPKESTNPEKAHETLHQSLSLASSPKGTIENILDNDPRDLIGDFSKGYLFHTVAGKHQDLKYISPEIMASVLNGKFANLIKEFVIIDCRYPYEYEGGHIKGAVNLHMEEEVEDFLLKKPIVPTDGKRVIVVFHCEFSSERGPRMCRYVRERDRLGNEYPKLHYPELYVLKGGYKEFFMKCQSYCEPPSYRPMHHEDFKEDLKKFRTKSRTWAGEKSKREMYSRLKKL
# [3] = target: Cyclin-dependent kinase 1 (Homo sapiens) (UniProt P06493); assay: Effect on CDK1 phosphorylation in human MCF7 cells after 6 hrs by Western blot analysis; type: cell-based
# [4] = test system: HT-29; assay: Cytotoxicity against human HT-29 cells assessed as inhibition of cell growth after 72 hrs by MTT assay; type: functional, cell-based; details: HT-29, 72 h
# [5] = test system: MCF7; assay: Increase in RNS levels in human MCF7 cells at IC50 concentration incubated for 24 hrs by DAF-2DA dye based flow cytometry; type: functional, cell-based
# [6] = test system: MCF7; assay: Cell cycle arrest in human MCF7 cells assessed as accumulation at G0/G1 phase at IC50 concentration after 48 hrs by propidium iodide staining-based flow cytometry (reference value: 66.7 +/- 1.6%); type: functional
# [7] = target: T2, M-phase inducer phosphatase 1 (Homo sapiens, UniProt P30304); assay: Mixed type inhibition of human recombinant full length GST-tagged CDC25A transfected in Escherichia coli BL21-DE3 assessed as enzyme/substrate/inhibitor complex using 3-O-methylfluorescein phosphate as substrate at 10 uM incubated for 20 mins followed by substrate addition measured every 10 mins for 2 hrs by fluorimetric assay
# T2 sequence (P30304 whole entry): T1 sequence (whole entry)
# [8] = test system: MCF7; assay: Cytotoxicity against human MCF7 cells assessed as inhibition of cell growth at IC50 concentration after 72 hrs by trypan blue assay; type: functional
# [9] = test system: MDA-MB-231; assay: Cytotoxicity against human MDA-MB-231 cells assessed as inhibition of cell growth after 72 hrs by MTT assay; type: functional, cell-based; details: MDA-MB-231, 72 h
# [10] = target: T1, M-phase inducer phosphatase 1 (Homo sapiens); assay: Inhibition of human recombinant full length GST-tagged CDC25A transfected in Escherichia coli BL21-DE3 using 3-O-methylfluorescein phosphate as substrate at 10 uM incubated for 20 mins followed by substrate addition measured every 10 mins for 2 hrs by fluorimetric assay
# [11] = test system: MDA-MB-231; assay: Increase in peroxynitryl radical levels in human MDA-MB-231 cells at IC50 concentration incubated for 24 hrs by DHR dye based flow cytometry; type: functional, cell-based
# [12] = test system: MCF7; assay: Induction of autophagy in human MCF7 cells assessed as acidic vesicles at 5.1 uM over 3 days by acridine orange dye based flow cytometry; type: functional, cell-based
# [13] = test system: MCF7; assay: Induction of apoptosis in human MCF7 cells assessed as chromatin condensation after 24 to 48 hrs by DAPI staining based UV fluorescent microscopy; type: functional, cell-based
# [14] = target: Cyclin-dependent kinase 1 (Homo sapiens) (UniProt P06493); assay: Effect on CDK1 phosphorylation in human MDA-MB-231 after 6 hrs by Western blot analysis
# [15] = target: T2, M-phase inducer phosphatase 1; assay: Mixed type inhibition of human recombinant full length GST-tagged CDC25A transfected in Escherichia coli BL21-DE3 assessed as enzyme/inhibitor complex using 3-O-methylfluorescein phosphate as substrate at 20 uM incubated for 20 mins followed by substrate addition measured every 10 mins for 2 hrs by fluorimetric assay
# [16] = target: T1, M-phase inducer phosphatase 1 (Homo sapiens); assay: Inhibition of human recombinant full length GST-tagged CDC25A transfected in Escherichia coli BL21-DE3 using 3-O-methylfluorescein phosphate as substrate at 10 uM incubated for 20 mins followed by substrate addition measured every 10 mins for 2 hrs by fluorimetric assay in presence of 0.1% triton X 100
# [17] = test system: MDA-MB-231; assay: Cell cycle arrest in human MDA-MB-231 cells assessed as accumulation at S phase at IC50 concentration after 48 hrs by propidium iodide staining-based flow cytometry (reference value: 21.7 +/- 0.3%); type: functional
# [18] = test system: MDA-MB-231; assay: Increase in RNS levels in human MDA-MB-231 cells at IC50 concentration incubated for 24 hrs by DAF-2DA dye based flow cytometry; type: functional, cell-based
# [19] = target: T1, M-phase inducer phosphatase 1 (Homo sapiens); assay: Inhibition of human recombinant full length GST-tagged CDC25A transfected in Escherichia coli BL21-DE3 using 3-O-methylfluorescein phosphate as substrate at 10 uM incubated for 20 mins followed by substrate addition measured every 10 mins for 2 hrs by fluorimetric assay in presence of 0.01% triton X 100
# [20] = test system: MCF7; assay: Increase in peroxynitryl radical levels in human MCF7 cells at IC50 concentration incubated for 24 hrs by DHR dye based flow cytometry; type: functional, cell-based
# [21] = test system: MDA-MB-231; assay: Induction of apoptosis in human MDA-MB-231 cells assessed as chromatin condensation after 24 to 48 hrs by DAPI staining based UV fluorescent microscopy; type: functional, cell-based
# [22] = Cytotoxicity against human HCT116 cells assessed as inhibition of cell growth after 72 hrs by MTT assay; type: functional, cell-based; details: HCT-116, 72 h
# [23] = test system: MDA-MB-231; assay: Induction of reactive oxygen species production in human MDA-MB-231 cells at IC50 concentration up to 6 hrs by DCF-2DA dye based flow cytometry; type: functional, cell-based
# [24] = test system: MCF7; assay: Induction of reactive oxygen species production in human MCF7 cells at IC50 concentration up to 6 hrs by DCF-2DA dye based flow cytometry; type: functional, cell-based
# [25] = target: T2, M-phase inducer phosphatase 1; assay: Inhibition of human recombinant full length GST-tagged CDC25A transfected in Escherichia coli BL21-DE3 using 3-O-methylfluorescein phosphate as substrate incubated for 20 mins followed by substrate addition measured every 10 mins for 2 hrs by fluorimetric assay
# [26] = target: T1, M-phase inducer phosphatase 1 (Homo sapiens); assay: Inhibition of human recombinant full length GST-tagged CDC25A transfected in Escherichia coli BL21-DE3 using 3-O-methylfluorescein phosphate as substrate at 10 uM incubated for 20 mins followed by substrate addition measured every 10 mins for 2 hrs by fluorimetric assay in presence of 0.5% triton X 100
# Chain of Cyclin-dependent kinase 1 (Homo sapiens) (P06493 whole entry, looked up): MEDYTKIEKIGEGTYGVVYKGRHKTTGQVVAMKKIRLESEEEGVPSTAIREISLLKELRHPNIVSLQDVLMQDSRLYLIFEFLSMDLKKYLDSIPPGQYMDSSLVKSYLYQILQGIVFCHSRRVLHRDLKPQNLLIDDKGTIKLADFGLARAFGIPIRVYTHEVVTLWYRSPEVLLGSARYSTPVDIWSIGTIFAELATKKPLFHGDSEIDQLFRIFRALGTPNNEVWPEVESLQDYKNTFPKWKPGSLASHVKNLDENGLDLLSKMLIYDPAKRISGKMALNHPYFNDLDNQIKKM
compound,measurement,setting,value
COc1ccc(/C=C2/S/C(=N\c3nc4cc(-c5ccc(Cl)cc5)sc4s3)NC2=O)cc1,Activity,[1],Active
same,inhibition,[2],27.1%
same,Activity,[3],inactive
same,IC50,[4],10.3 µM
same,Activity,[5],Active
same,Activity,[6],58.8%
same,Ki,[7],5.1 µM
same,growth inhibition (GI),[8],45%
same,IC50,[9],8.4 µM
same,inhibition,[10],70.3%
same,Activity,[11],Active
same,Activity,[12],inactive
same,Activity,[13],inactive
same,Activity,[14],inactive
same,Ki,[15],3.1 µM
same,inhibition,[16],86.2%
same,Activity,[17],25.8%
same,Activity,[18],Active
same,inhibition,[19],28.2%
same,Activity,[20],Active
same,Activity,[21],inactive
same,IC50,[22],9.2 µM
same,Activity,[23],inactive
same,Activity,[24],inactive
same,IC50,[25],6.2 µM
same,inhibition,[26],97.5%

# Source: ChEMBL document CHEMBL3808363, “2-(Thienothiazolylimino)-1,3-thiazolidin-4-ones inhibit cell division cycle 25 A phosphatase” (Bioorg Med Chem, 2016)
